Laboratory results as given in article PMC5423977, “Safety, pharmacokinetics, and pharmacodynamics of BMS-986142, a novel reversible BTK inhibitor, in healthy participants” (European Journal of Clinical Pharmacology, 2017).
Like-named read-outs stand apart in the source and are kept apart here.

How the values were obtained:
[1] = Stability of methotrexate and 7-hydroxymethotrexate in human sodium heparin plasma and processed samples (bioanalytical validation); type: physicochemical
Method: Method validation was carried out according to the Bristol-Myers Squibb Standard Operating Procedures (SOPs) for chromatographic method validation which conforms to the U.S. FDA’s Good Laboratory Practice (GLP) regulations (21 CFR part 58). The validation experiments included but were not limited to the determination of the lower limit of quantification (LLOQ), specificity, accuracy and precision, recovery, and analyte stability under the expected conditions of sample transfer, sample storage, and sample preparation. The LLOQ of the assay was determined to be 1 ng/mL using six different lots of plasma. No interference from the endogenous components and the internal standard was observed.
The accuracy and precision data for BMS-986142, based on the maximum value from all six QC levels, obtained using one-way ANOVA in Watson are listed in Table 1. The recovery of the analyte from human plasma during extraction was determined at 3 ng/mL and 800 ng/mL for BMS-986142, at 3 ng/mL, 30 ng/mL and 750 ng/mL for methotrexate and 7-hydroxymethotrexate, by comparing the response ratios in human plasma samples spiked with the analyte prior to extraction with those spiked post-extraction. The recovery for BMS-986142 is 89-90%. The recoveries for methotrexate and 7-hydroxymethotrexate are 88-94% and 83-88%, respectively. The room temperature, freeze-thaw, and frozen storage stability of BMS-986142 were evaluated in triplicate or quadruplicate using Low QC, High QC, and Dilution QC. The reinjection integrity was assessed by re-injecting an entire run. The deviations of the mean predicted concentrations of the test samples from the nominal concentrations were used as an indicator of the stability of the analyte.

[2] = system: animal models of arthritis; design: method as in PMID 21752263, PMID 21521773; settings: cited from earlier work
[3] = system: rat adjuvant-induced arthritis model; design: method as in PMID 22228807; settings: alone or in combination with MTX; cited from earlier work
[4] = Effect of BMS-986142 on single-dose plasma PK of MTX (DDI); type: in vivo, human; settings: for AUC(0-inf): read-out: AUC(inf), geometric mean (adjusted); for Cmax: read-out: Cmax, geometric mean (adjusted)
Method: Blood samples for the measurement of BMS-986142 were collected up to 168 h after dosing of BMS-986142 on day 1 for participants in SAD. In MAD, blood samples were collected up to 24 h on day 1 and up to 120 h on day 14 (the last day of treatment). Blood samples for the measurement of MTX were collected up to 48 h after dosing of MTX on days 1 and 8.
Plasma samples were analyzed for BMS-986142 levels with a validated method using liquid chromatography tandem mass spectrometry (LC-MS/MS) detection. The analyte was extracted from 50 μL of plasma using a liquid–liquid extraction method. Methyl tert-butyl ether was used as the extraction solvent. The lower limit of quantification (LLOQ) was 1.00 ng/mL in plasma. Plasma samples were analyzed for methotrexate levels using LC-MS/MS detection. Analytes were isolated from 50 μL plasma through solid phase extraction using Waters Oasis MAX, 10-mg, 96-well SPE plates. The final extract was analyzed using LC-MS/MS detection. LLOQ was 1.00 ng/mL in plasma. Detailed methodology quantitating the concentration level of BMS-986142 and MTX is provided in Online Resource 10.
Individual subject pharmacokinetic parameters for BMS-986142 and MTX were derived by a non-compartmental method using validated PK software (WinNonLin version 6.3; Pharsight Corporation, Mountain View, CA, USA). The following PK parameters for BMS-986142 and MTX were derived from plasma concentration versus time data: maximum observed plasma concentration (Cmax); minimum observed plasma concentration (Cmin); time to maximum observed plasma concentration (Tmax); area under the plasma concentration-time curve from time zero to the time of the last quantifiable concentration (AUC(0-T)), from time zero extrapolated to infinite time (AUC(inf)), and in one dosing interval (AUC(TAU)); terminal plasma half-life (T1/2); and AUC accumulation index (AI_AUC). AI_AUC was calculated to divide AUC(TAU) on day 14 by AUC(TAU) on day 1.
Statistical analyses were conducted to assess the effect of coadministration of BMS-986142 on the PK of MTX. For all treatment comparisons, a linear mixed-effect model was fitted to the log-transformed PK parameters Cmax, AUC(0-T), and AUC(inf). Point estimates and 90% CIs for differences on the log-scale were exponentiated to obtain estimates for geometric mean ratios (GMRs) and respective 90% CIs on the original scale. Sample size determination is based on consideration of the precision of the estimate of the GMRs of AUCs of MTX with and without BMS-986142. With 9 evaluable subjects, there will be an 80% probability that the 90% CI of AUC(INF) GMR will be within 89.9 to 111.2% of the point estimate. These precision estimates are based on an assumption that Cmax and AUC(INF) of MTX are log-normally distributed with intrasubject CV of 14.67 and 10.38%, respectively, as calculated from Namour et al..

[5] = Safety (adverse events), Study 2 MTX-DDI in healthy male participants
Method: This portion of the study was designed to assess the effect of BMS-986142 on the PK of MTX since MTX is used as a background therapy in RA patients and all patients will receive MTX when the phase 2 study of BMS-986142 is conducted. Eligible participants were confined to the clinical facility for the duration of treatment (15 days). Healthy participants were administered a single oral dose of 7.5 mg MTX on day 1. On day 2, participants received leucovorin (a single oral dose of 15 mg) as a preventive measure for MTX toxicity. After a washout period (days 2–5), BMS-986142 was administered on days 6–10 in 350-mg QD doses. A concomitant dose of MTX (7.5 mg) was administered on day 8, followed by leucovorin (15 mg) on day 9 (Online Resource 2). BMS-986142 was administered with 240 mL of water, and a minimum amount of additional water was permitted to allow dosing of all medications. Only healthy male participants (ages ≥18 to ≤50 years) were eligible for the MTX-DDI assessment in study 2. Other key inclusion and exclusion criteria were identical to those in study 1.
Participants were monitored for adverse events (AEs) throughout the study. Clinical laboratory tests, vital sign measurements, 12-lead ECGs, and physical examinations were performed at selected times throughout the dosing interval. Safety data was recorded in the participants’ medical records, and assessments were performed for emergent AEs or serious AEs (SAEs). For all AEs, causal relationship to the study drug was determined by an investigator.

[6] = 7-hydroxymethotrexate, 24 hours at RT in Plasma, High QC 750
[7] = 7-hydroxymethotrexate, 24 hours at RT in Plasma, Low QC 3.00
[8] = 7-hydroxymethotrexate, 142 h Processed sample stability, High QC 750
[9] = 7-hydroxymethotrexate, 142 h Processed sample stability, Low QC 3.00
[10] = 7-hydroxymethotrexate, 6 days at 5 °C Re-injection integrity, High QC 750
[11] = 7-hydroxymethotrexate, 6 days at 5 °C Re-injection integrity, Low QC 3.00
[12] = 7-hydroxymethotrexate, 449 day at -20 °C in Plasma, High QC 750
[13] = 7-hydroxymethotrexate, 449 day at -20 °C in Plasma, Low QC 3.00
[14] = 7-hydroxymethotrexate, After 4 Freeze-Thaw Cycle in Plasma, High QC 750
[15] = 7-hydroxymethotrexate, After 4 Freeze-Thaw Cycle in Plasma, Low QC 3.00
[16] = male, human, plasma, oral, Treatment D: single-dose methotrexate 7.5 mg (day 1) + leucovorin 15 mg (day 2)
[17] = male, human, plasma, oral, Treatment F: BMS-986142 350 mg QD + single-dose methotrexate 7.5 mg (day 8) + leucovorin 15 mg (day 9)
[18] = methotrexate with BMS-986142 350 mg QD vs methotrexate alone
[19] = methotrexate, 24 hours at RT in Plasma, High QC 750
[20] = methotrexate, 24 hours at RT in Plasma, Low QC 3.00
[21] = methotrexate, 142 h Processed sample stability, High QC 750
[22] = methotrexate, 142 h Processed sample stability, Low QC 3.00
[23] = methotrexate, 6 days at 5 °C Re-injection integrity, High QC 750
[24] = methotrexate, 6 days at 5 °C Re-injection integrity, Low QC 3.00
[25] = methotrexate, 449 day at -20 °C in Plasma, High QC 750
[26] = methotrexate, 449 day at -20 °C in Plasma, Low QC 3.00
[27] = methotrexate, After 4 Freeze-Thaw Cycle in Plasma, High QC 750
[28] = methotrexate, After 4 Freeze-Thaw Cycle in Plasma, Low QC 3.00
[29] = MTX 7.5 mg (Day 1) + leucovorin 15 mg (Day 2), n = 12

Compound: CN(Cc1nc2c(N)nc(N)nc2[nH]c1=O)c1ccc(C(=O)N[C@@H](CCC(=O)O)C(=O)O)cc1 [7-hydroxymethotrexate]
- Stability, %Dev [1, 6]: -0.3%
- Stability, Mean Conc. [1, 6]: 747 ng/mL
- Stability, %Dev [1, 7]: 9.2%
- Stability, Mean Conc. [1, 7]: 3.28 ng/mL
- Stability, %Dev [1, 8]: -8.1%
- Stability, Mean Conc. [1, 8]: 689 ng/mL
- Stability, %Dev [1, 9]: -8.7%
- Stability, Mean Conc. [1, 9]: 2.74 ng/mL
- Stability, %Dev [1, 10]: 0.4%
- Stability, Mean Conc. [1, 10]: 753 ng/mL
- Stability, %Dev [1, 11]: 5.7%
- Stability, Mean Conc. [1, 11]: 3.17 ng/mL
- Stability, %Dev [1, 12]: -0.3%
- Stability, Mean Conc. [1, 12]: 747 ng/mL
- Stability, %Dev [1, 13]: -10.4%
- Stability, Mean Conc. [1, 13]: 2.69 ng/mL
- Stability, %Dev [1, 14]: 0.2%
- Stability, Mean Conc. [1, 14]: 751 ng/mL
- Stability, %Dev [1, 15]: 1.4%
- Stability, Mean Conc. [1, 15]: 3.04 ng/mL

Compound: Cc1c(NC(=O)c2cc3c(s2)CCCC3)cccc1-c1cn(C)c(=O)c(Nc2ccc([C@@H]3C(=O)N(C)CCN3C)cc2)n1 [GDC-0834]
- Efficacy in animal models of arthritis [2]: Dose-dependent efficacy

Compound: C=CC(=O)N1CCC[C@@H](n2nc(-c3ccc(Oc4ccccc4)cc3)c3c(N)ncnc32)C1 [PCI-32765]
- Efficacy in animal models of arthritis [2]: Dose-dependent efficacy

Compound: CN1CCN(c2ccc(Nc3cc(-c4cccc(-n5ccc6cc(C7CC7)cc(F)c6c5=O)c4CO)cn(C)c3=O)nc2)CC1 [RN486]
- Efficacy on joint and systemic inflammation [3]: efficacious in reducing joint and systemic inflammation

Compound: CN(Cc1cnc2nc(N)nc(N)c2n1)c1ccc(C(=O)N[C@@H](CCC(=O)O)C(=O)O)cc1 [methotrexate, reference compound]
- AUC(0-T), geometric mean (adjusted) ([4]; Treatment D: single-dose methotrexate 7.5 mg (day 1) + leucovorin 15 mg (day 2)): 613 ng·h/mL
- AUC(0-inf) [4, 16]: 625 ng·h/mL
- Cmax [4, 16]: 178 ng/mL
- AUC(0-t) ([4]; male, human, plasma, oral, Treatment F: BMS-986142 350 mg QD + single-dose methotrexate 7.5 mg (day 8) + leucovorin 15 mg (day 9), read-out: AUC(0-T), geometric mean (adjusted)): 638 ng·h/mL
- AUC(0-inf) [4, 17]: 654 ng·h/mL
- Cmax [4, 17]: 186 ng/mL
- AUC(0-T), adjusted geometric mean ratio F vs D [4, 18]: 1.041
- AUC(inf), adjusted geometric mean ratio F vs D [4, 18]: 1.045
- Cmax, adjusted geometric mean ratio F vs D [4, 18]: 1.046
- Stability, %Dev [1, 19]: 0.2%
- Stability, Mean Conc. [1, 19]: 751 ng/mL
- Stability, %Dev [1, 20]: -0.1%
- Stability, Mean Conc. [1, 20]: 3.00 ng/mL
- Stability, %Dev [1, 21]: -13.1%
- Stability, Mean Conc. [1, 21]: 652 ng/mL
- Stability, %Dev [1, 22]: -9.2%
- Stability, Mean Conc. [1, 22]: 2.72 ng/mL
- Stability, %Dev [1, 23]: -2.2%
- Stability, Mean Conc. [1, 23]: 734 ng/mL
- Stability, %Dev [1, 24]: 3.4%
- Stability, Mean Conc. [1, 24]: 3.10 ng/mL
- Stability, %Dev [1, 25]: 0.6%
- Stability, Mean Conc. [1, 25]: 755 ng/mL
- Stability, %Dev [1, 26]: -9.9%
- Stability, Mean Conc. [1, 26]: 2.70 ng/mL
- Stability, %Dev [1, 27]: -2.1%
- Stability, Mean Conc. [1, 27]: 734 ng/mL
- Stability, %Dev [1, 28]: 3.7%
- Stability, Mean Conc. [1, 28]: 3.11 ng/mL
- AE SOC: Gastrointestinal Disorders [5, 29]: 0 n (%)
- AE SOC: General disorders and administration site conditions [5, 29]: 1 (8.3) n (%)
- AE SOC: Infections and infestations [5, 29]: 0 n (%)
- AE SOC: Injury, poisoning and procedural complications [5, 29]: 0 n (%)
- AE SOC: Nervous system disorders [5, 29]: 1 (8.3) n (%)
- AE SOC: Psychiatric disorders [5, 29]: 0 n (%)
- AE: Anxiety [5, 29]: 0 n (%)
- AE: Arthropod Bite [5, 29]: 0 n (%)
- AE: Asthenia [5, 29]: 1 (8.3) n (%)
- AE: Dizziness [5, 29]: 1 (8.3) n (%)
- AE: Fatigue [5, 29]: 0 n (%)
- AE: Headache [5, 29]: 0 n (%)
- AE: Nausea [5, 29]: 0 n (%)
- AE: Sleep Disorder [5, 29]: 0 n (%)
- AE: Tremor [5, 29]: 1 (8.3) n (%)
- Total participants with an event [5, 29]: 1 (8.3) n (%)
- Number of AEs reported ([5]; Study 2, single-dose MTX on day 1): Three
